One test deals with T1, OR7D4 RT (Homo sapiens, UniProt Q8NG98).
T1 construct: expressed in transfected cells; host or cells: Hana3A (HEK293T-derived)
T1 sequence (Q8NG98 1-312): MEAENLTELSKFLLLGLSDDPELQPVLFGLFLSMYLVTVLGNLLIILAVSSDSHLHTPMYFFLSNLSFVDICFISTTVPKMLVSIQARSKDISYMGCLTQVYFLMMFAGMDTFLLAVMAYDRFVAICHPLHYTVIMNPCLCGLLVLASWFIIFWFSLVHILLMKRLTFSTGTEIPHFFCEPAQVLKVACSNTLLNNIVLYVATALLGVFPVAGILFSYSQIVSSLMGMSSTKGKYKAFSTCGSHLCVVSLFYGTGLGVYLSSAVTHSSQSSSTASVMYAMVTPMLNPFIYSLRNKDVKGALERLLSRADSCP
Put plainly: Luciferase assay of odorant receptor activation in Hana3A cells, OR7D4 RT. The class given is cell-based. On the set-up: dose or concentration left out as unconfirmed. Particulars: for response of OR7D4 RT (normalized luciferase), ligand specificity panel: panel of 66 odors and 2 solvents at or 1,130,000 dilution. An excerpt: Heterologous expression of human odorant receptors. 423 human odorant receptors including 337 predicted functional receptors were cloned. Odorant receptors that contained the first 20 amino acid of human rhodopsin (see, e.g., Krautwurst, D., et al., Cell 95, 917-926 (1998); herein incorporated by reference in its entirety) in pCl (Promega) were expressed in the Hana3A cell line along with a short form of mRTP1, RTP1S, (M37 to the C-terminal end), which enhanced functional expression of the odorant receptors. For immunocytochemistry, cells were fixed, permeabilized and incubated with monoclonal anti-rhodopsin antibody, 4D2 (see, e.g., Laird, D. W., et al., Invest Opthalmol Vis Sci 29.419428 (1988); herein incorporated by reference in its entirety), followed by Cy3-conjugated donkey anti-mouse IgG (Jackson Immunologicals). For FACS analysis, PE-conjugated donkey anti-mouse IgG (Jackson Immunologicals) was used. Western blot analysis was performed according to Mini-Protean 2 Cell (Bio-Rad) protocol. ECL (Amersham) was used for detecting proteins on membranes. After the initial exposure, the membrane was incubated with stripping buffer (25 mM Glycine-HCl [pH2], 1% SDS, 25 mM Glycine, 0.036N HCl, 1% SDS) and incubated with rabbit anti-GFP (Invitrogen). Luciferase assays were performed as described (see, e.g., Saito, H., et al., Cell 119:679-691 (2004); incorporated herein by reference in its entirety). […]
(§1) Luciferase assay and data analysis. […] Luminescence was measured using Wallac Victor 1420 (Perkin-Elmer). Normalized luciferase activity was calculated by the formula [luc(N)-luc(lowest)]/luc(highest)/RL (N) where luc(N)=luminescence of luciferase of a certain well; luc(lowest)=lowest luminescence of luciferase of a plate or a set of plates; luc(highest)=highest luminescence of luciferase of a plate or a set of plates; RL(N)=luminescence of Renilla luciferase of a certain well. Data was analyzed with Microsoft Excel and GraphPad Prism 4.

Another test has as its target T2, OR7D4 WM (Homo sapiens, UniProt Q8NG98, R88W/T133M).
T2 construct: expressed in transfected cells; host or cells: Hana3A (HEK293T-derived)
T2 sequence (Q8NG98 1-312 R88W/T133M): T1 sequence (Q8NG98 1-312) with R88W, T133M
In words: Luciferase assay of odorant receptor activation in Hana3A cells, OR7D4 WM. The test is classed as cell-based. To be noted: variant R88W/T133M, relative to OR7D4 RT.
Excerpt: Heterologous expression of human odorant receptors. 423 human odorant receptors including 337 predicted functional receptors were cloned. Odorant receptors that contained the first 20 amino acid of human rhodopsin (see, e.g., Krautwurst, D., et al., Cell 95, 917-926 (1998); herein incorporated by reference in its entirety) in pCl (Promega) were expressed in the Hana3A cell line along with a short form of mRTP1, RTP1S, (M37 to the C-terminal end), which enhanced functional expression of the odorant receptors. For immunocytochemistry, cells were fixed, permeabilized and incubated with monoclonal anti-rhodopsin antibody, 4D2 (see, e.g., Laird, D. W., et al., Invest Opthalmol Vis Sci 29.419428 (1988); herein incorporated by reference in its entirety), followed by Cy3-conjugated donkey anti-mouse IgG (Jackson Immunologicals). […]
as §1

Substitutions are numbered along the chain they refer to.

`C[C@]12CCC(=O)C[C@@H]1CC[C@@H]1[C@@H]2CC[C@]2(C)C=CC[C@@H]12` [androstenone, 5α-androst-16-en-3-one]: the “response of OR7D4 in screen of human odorant receptor panel” value on OR7D4 RT (Hana3A cells, 337 human odorant receptors, stimulated with androstenone) is reported as “robust responses”. In addition, the “response of OR7D4 RT (normalized luciferase), ligand specificity panel” value at OR7D4 RT is “responded selectively”. On OR7D4 WM, the “function of OR7D4 WM in vitro in the presence of the odor” value was “severely impaired olfactory function”.
`C[C@@]12C=CC[C@H]1[C@@H]1CCC3=CC(=O)CC[C@]3(C)[C@H]1CC2` [androstadienone, androsta-4,16-dien-3-one]: the “response of OR7D4 RT (normalized luciferase), ligand specificity panel” value on OR7D4 RT is reported as “responded selectively”. The “function of OR7D4 WM in vitro in the presence of the odor” value on OR7D4 WM is “severely impaired olfactory function”.

(Values after patent US8298781B2, “Compositions and methods for characterizing and regulating olfactory sensation” (Duke University, priority 2007, dated 2012).)
